According to US20030013637A1, “Novel anti-autoimmune composition by inhibition of GRF action” (priority 2001, published 2003):

Test system: EAE-induced PLSJLF1/J mice
Experiment: Effect of GRF antagonist administration on experimental autoimmune encephalomyelitis (EAE) induced by rabbit MBP immunization and pertussis toxin
Type: in vivo
Description: In order to investigate the affect of the administration of GRF antagonist on the onset of autoimmune disease, studies were conducted using experimental autoimmune encephalomyelitis (EAE), which is an experimental animal model of human multiple sclerosis.
Wild mice (PLSJLF1/J) (females purchased from The Jackson Laboratory) were used in the experiment. The mice were purchased at five weeks of age, and were reared under artificial lighting from 8:00 am to 8:00 pm every day throughout the experiment. The animals were allowed free access to water and solid food (CE-2; Japan CLEA).
First, these mice (total ten animals) were sensitized by subcutaneous administration in the femoral area of 100 μL of an emulsion in a 1:1 mixture of complete Freund's adjuvant (CFA) (Difco Co.) to 2 mg/mL rabbit myelin basic protein (MBP) (manufactured by Sigma Co.) dissolved in physiological saline (manufactured by Otsuka Pharmaceutical Co. Ltd.). Pertussis toxin (manufactured by List Biological Laboratories) (200 ng) dissolved in physiological saline (manufactured by Otsuka Pharmaceutical Co. Ltd.) was intra-abdominally administered immediately after and two days after sensitization. In this manner, experimental autoimmune encephalomyelitis (EAE) was induced.
Next, GRF antagonist was administered in compliance with the following procedures. The mice (total of ten animals) that had been MBP sensitized and administered pertussis toxin were divided into two groups. One group (five animals) was subcutaneously administered in the dorsal neck region 30 μg of GRF antagonist (MZ-4-71; manufactured by the US company Calbiochem Novabiochem) per mouse once per day from the eighth to 15th day after MBP sensitization (MZ-4-71 administration group). The other group (five animals) was subcutaneously administered in the dorsal neck region an equal amount of physiological saline in the same way as a control once per day from the eighth to 15th day after MBP sensitization (saline administration group). All animals were allowed free access to food and water throughout the entire rearing period including during the aforementioned experimental period.
The body weight of each mouse was measured every day. The EAE symptoms were observed. and EAE symptom scores were recorded based on the following criteria.
0: No symptoms, 1: Paralysis of tail, 2: Mild paralysis of rear legs, 3: Moderate to severe paralysis of rear legs or mild paralysis of front legs, or both, 4: Complete paralysis of rear legs or moderate to severe paralysis of front legs, or both, 5: Paralysis of all four limbs or struggling with death, 6: Death

In the case of “[Ibu^0, D-Arg^2, Phe(4-Cl)^6, Abu^15, Nle^27]hGHRH-(1-28)Agm [MZ-4-71]”, the “beginning of EAE onset” value (PLSJLF1/J mice, 30 μg per mouse s.c. once per day, day 8 to 15 after MBP sensitization, FIG. 2(A)) is reported as 11 post-sensitization day, the beginning of flare-ups (after remission, 30 μg per mouse s.c. once per day, day 8-15) is reported as 20 post-sensitization day and the “mean EAE score” value (beginning post-sensitization day 17, remissions in all the mice, 30 μg per mouse s.c. once per day, day 8-15) is reported as 0. The “mean EAE score” value (post-sensitization day 13, 30 μg per mouse s.c. once per day, day 8-15, score scale 0-6) was 0.3, the “peak mean EAE score” value (post-sensitization day 23, peak over subsequent observation period, 30 μg per mouse s.c. once per day, day 8-15) was 2.2 and the EAE onset percentage (post-sensitization day 26, 30 μg per mouse s.c. once per day, day 8-15, FIG. 2(B)) was “not more than 60%”. For the same substance, the “EAE scores compared to the saline administration group” value (time course of mean values, FIG. 2(A)) was “lower EAE scores” and the “beginning of EAE onset compared to the saline administration group” value (time course of onset percentage, FIG. 2(B)) was “a delay in the beginning of EAE onset”.
